Data published in patent publication EP0115820A2, “Cephalosporin derivatives and process for their preparation” (Kaken Pharmaceutical Co., Ltd., priority 1983, dated 1984).
In brackets after ≈: the same amount, converted by molar mass. Like-named read-outs stand apart in the source and are kept apart here.

What was measured:
Assay in all cases: Minimum inhibitory concentration (MIC)
Assay type in all cases: cell-based
[1] = test system: Pseudomonas aeruginosa Y-1
Source text: (§1) The cephalosporin derivatives of the present invention are novel substances, and the antimicrobial activities of their sodium salts are shown by the minimum inhibitory concentrations (MIC, µg/ml) in Table 1, as compared with a typical known cephalosporin compound.

[2] = test system: Klebsiella pneumoniae No. 42
Source text: as §1

[3] = test system: Proteus vulgaris GN-76
Source text: as §1

[4] = test system: Escherichia coli NIHJ JC-2
Source text: as §1

[5] = test system: Staphylococcus aureus 209 P JC-1
Source text: as §1

[6] = test system: Pseudomonas aeruginosa K-13
Source text: as §1

[7] = test system: Pseudomonas aeruginosa E-2
Source text: as §1

[8] = test system: Serratia marcescens No. 16-2
Source text: as §1

[9] = Y1, Pseudomonas aeruginosa Y-1, bacterial suspension 10^6 cells/ml, sodium salts tested, read-out: Minimum inhibitory concentration
[10] = Klebsiella pneumoniae No. 42, bacterial suspension 10^6 cells/ml, sodium salts tested, read-out: Minimum inhibitory concentration
[11] = GN76, Proteus vulgaris GN-76, bacterial suspension 10^6 cells/ml, sodium salts tested, read-out: Minimum inhibitory concentration
[12] = NIHJJC2, Escherichia coli NIHJ JC-2, bacterial suspension 10^6 cells/ml, sodium salts tested, read-out: Minimum inhibitory concentration
[13] = 209PJC1, Staphylococcus aureus 209 P JC-1, bacterial suspension 10^6 cells/ml, sodium salts tested, read-out: Minimum inhibitory concentration
[14] = K13, Pseudomonas aeruginosa K-13, bacterial suspension 10^6 cells/ml, sodium salts tested, read-out: Minimum inhibitory concentration
[15] = E2, Pseudomonas aeruginosa E-2, bacterial suspension 10^6 cells/ml, sodium salts tested, read-out: Minimum inhibitory concentration
[16] = NO.162, Serratia marcescens No. 16-2, bacterial suspension 10^6 cells/ml, sodium salts tested, read-out: Minimum inhibitory concentration

MIC [1, 9] [µg/mL] | MIC [2, 10] [µg/mL] | MIC [3, 11] [µg/mL] | MIC [4, 12] [µg/mL] | MIC [5, 13] [µg/mL] | MIC [6, 14] [µg/mL] | MIC [7, 15] [µg/mL] | MIC [8, 16] [µg/mL] | Compound | MIC ([1]; Pseudomonas aeruginosa, Y1, read-out: Minimum inhibitory concentration) [µg/mL] | MIC ([2]; Klebsiella pneumoniae, NO.42, read-out: Minimum inhibitory concentration) [µg/mL] | MIC ([3]; Proteus vulgaris, GN76, read-out: Minimum inhibitory concentration) [µg/mL] | MIC ([4]; Escherichia coli, NIHJJC2, read-out: Minimum inhibitory concentration) [µg/mL] | MIC ([5]; Staphylococcus aureus, 209PJC1, read-out: Minimum inhibitory concentration) [µg/mL] | MIC ([6]; Pseudomonas aeruginosa, K13, read-out: Minimum inhibitory concentration) [µg/mL] | MIC ([7]; Pseudomonas aeruginosa, E2, read-out: Minimum inhibitory concentration) [µg/mL] | MIC ([8]; Serratia marcescens, NO.162, read-out: Minimum inhibitory concentration) [µg/mL]
0.2 | 0.2 | 6.25 | 0.78 | 0.39 | 0.1 | 0.39 | 100 | Cn1nnnc1SCC1=C(C(=O)O)N2C(=O)[C@@H](NC(=O)C(NC(=O)c3ccc(O)c(O)c3)c3csc(N)n3)[C@H]2SC1 (mixture of isomers) [Example 2, 7β-[DL-2-(3,4-dihydroxybenzoylamino)-2-(2-aminothiazol-4-yl)acetamido]-3-(1-methyl-1H-tetrazol-5-yl-thiomethyl)-3-cephem-4-carboxylic acid] |  |  |  |  |  |  |  | 
0.39 | 0.39 | 3.12 | 12.5 | 1.56 | 0.78 | 0.39 | 3.12 | CO[C@@]1(NC(=O)C(NC(=O)c2ccc(O)c(O)c2)c2csc(N)n2)C(=O)N2C(C(=O)O)=C(COC(C)=O)CS[C@@H]21 (mixture of isomers) [Example 9, 7α-methoxy-7β-[DL-2-(3,4-dihydroxy-benzoylamino)-2-(2-aminothiazol-4-yl)acetamidolcephalosporic acid] |  |  |  |  |  |  |  | 
0.2 | 0.1 | 1.56 | 6.25 | 1.56 | 0.39 | 0.2 | 0.78 | CO[C@@]1(NC(=O)C(NC(=O)c2ccc(O)c(O)c2)c2csc(N)n2)C(=O)N2C(C(=O)O)=C(CSc3nnnn3C)CS[C@@H]21 (mixture of isomers) [Example 12, 7α-methoxy-7β-[DL-2-(3,4-dihydroxy-benzoylamino)-2-(2-aminothiazol-4-yl)acetamido]-3-(l-methyl-lH-tetrazol-5-yl-thiomethyl)-3-cephem-4-carboxylic acid] |  |  |  |  |  |  |  | 
0.05 | 0.05 | 0.2 | 0.39 | 0.39 | 0.2 | 0.1 | 6.25 | CC(=O)OCC1=C(C(=O)O)N2C(=O)[C@@H](NC(=O)C(NC(=O)c3ccc(O)c(O)c3)c3csc(N)n3)[C@H]2SC1 (mixture of isomers) [Example 20, 7β-[DL-2-(3,4-dihydroxybenzoylamino)-2-(2-aminothiazol-4-yl)acetamido]cephalosporic acid] |  |  |  |  |  |  |  | 
50 | 6.25 | 25 | 3.12 | 0.39 | 25 | 25 | > 200 | CC(=O)OCC1=C(C(=O)O)N2C(=O)[C@@H](NC(=O)C(NC(=O)c3ccc(O)cc3)c3csc(N)n3)[C@H]2SC1 (mixture of isomers) [Example 24, 7β-[DL-2-(4-hydroxybenzoylamino)-2-(2-aminothiazol-4-yl)acetamido]cephalosporic acid] |  |  |  |  |  |  |  | 
0.1 | 0.2 | 6.25 | 0.78 | 0.39 | 0.2 | 0.39 | 50 | CCOC(=O)Oc1ccc(C(=O)NC(C(=O)N[C@@H]2C(=O)N3C(C(=O)O)=C(CSc4nnnn4C)CS[C@H]23)c2csc(N)n2)cc1OC(=O)OCC (mixture of isomers) [Example 5, 7β-[DL-2-(3,4-diethoxycarbonyloxy-benzoylamino)-2-(2-aminothiazol-4-yl)acetamido]-3-(l-methyl-lH-tetrazol-5-yl-thiomethyl)-3-cephem-4-carboxylic acid] |  |  |  |  |  |  |  | 
> 200 | 12.5 | 25 | 6.25 | 0.39 | > 200 | > 200 | > 200 | CC(=O)OCC1=C(C(=O)O)N2C(=O)[C@@H](NC(=O)C(NC(=O)c3cccc(O)c3)c3csc(N)n3)[C@H]2SC1 (mixture of isomers) [Example 23, 73-[DL-2-(3-hydroxybenzoylamino)-2-(2-aminothiazol-4-yl)acetamidolcephalosporic acid] |  |  |  |  |  |  |  | 
100 | 3.12 | 6.25 | 3.12 | 0.39 | 25 | 50 | > 200 | CC(=O)OCC1=C(C(=O)O)N2C(=O)[C@@H](NC(=O)C(NC(=O)c3ccccc3O)c3csc(N)n3)[C@H]2SC1 (mixture of isomers) [Example 22, 7β-[DL-2-(2-hydroxybenzoylamino)-2-(2-aminothiazol-4-yl)acetamido]cephalosporic acid] |  |  |  |  |  |  |  | 

The next lines start with the molecule.

Compound | MIC [1, 9] [µg/mL] | MIC [2, 10] [µg/mL] | MIC [3, 11] [µg/mL] | MIC [4, 12] [µg/mL] | MIC [5, 13] [µg/mL] | MIC [6, 14] [µg/mL] | MIC [7, 15] [µg/mL] | MIC [8, 16] [µg/mL] | MIC ([1]; Pseudomonas aeruginosa, Y1, read-out: Minimum inhibitory concentration) [µg/mL] | MIC ([2]; Klebsiella pneumoniae, NO.42, read-out: Minimum inhibitory concentration) [µg/mL] | MIC ([3]; Proteus vulgaris, GN76, read-out: Minimum inhibitory concentration) [µg/mL] | MIC ([4]; Escherichia coli, NIHJJC2, read-out: Minimum inhibitory concentration) [µg/mL] | MIC ([5]; Staphylococcus aureus, 209PJC1, read-out: Minimum inhibitory concentration) [µg/mL] | MIC ([6]; Pseudomonas aeruginosa, K13, read-out: Minimum inhibitory concentration) [µg/mL] | MIC ([7]; Pseudomonas aeruginosa, E2, read-out: Minimum inhibitory concentration) [µg/mL] | MIC ([8]; Serratia marcescens, NO.162, read-out: Minimum inhibitory concentration) [µg/mL]
CC(=O)Oc1cc(C(=O)NC(C(=O)N[C@@H]2C(=O)N3C(C(=O)O)=C(CSc4nnnn4C)CS[C@H]23)c2csc(N)n2)cc(OC(C)=O)c1OC(C)=O (mixture of isomers) [Example 3, 7β-[DL-2-(3,4,5-triacetoxybenzoylamino)-2-(2-aminothiazol-4-yl)acetamidol-3-(l-methyl-lH-tetrazol-5-yl-thiomethyl)-3-cephem-4-carboxylic acid] | 0.1 | < 0.05 | 0.39 | 0.78 | 0.78 | 0.2 | 0.2 | 0.05 |  |  |  |  |  |  |  | 
CO[C@@]1(NC(=O)C(NC(=O)c2cc(OC(C)=O)c(OC(C)=O)c(OC(C)=O)c2)c2csc(N)n2)C(=O)N2C(C(=O)O)=C(CSc3nnnn3C)CS[C@@H]21 (mixture of isomers) [Example 11, 7α-methoxy-7β-[DL-2-(3,4,5-triacetoxy-benzoylamino)-2-(2-aminothiazol-4-yl)acetamido]-3-(1-methyl-lH-tetrazol-5-yl-thiomethyl)-3-cephem-4-carboxylic acid] | 0.78 | 0.39 | 3.12 | 6.25 | 6.25 | 0.78 | 0.39 | 6.25 |  |  |  |  |  |  |  | 
CC(=O)OCC1=C(C(=O)O)N2C(=O)[C@@H](NC(=O)C(NC(=O)c3cccc(OC(C)=O)c3OC(C)=O)c3csc(N)n3)[C@H]2SC1 (mixture of isomers) [Example 14, 7β-[DL-2-(2,3-diacetoxybenzoylamino)-2-(2-aminothiazol-4-yl)acetamido]cephalosporic acid] | 0.2 | 0.39 | 0.78 | 1.56 | 3.12 | 0.39 | 0.39 | 12.5 |  |  |  |  |  |  |  | 
CO[C@@]1(NC(=O)CSCC#N)C(=O)N2C(C(=O)O)=C(CSc3nnnn3C)CS[C@@H]21 [Cefmetazole, reference compound] |  |  |  |  |  |  |  |  | 3200 (≈ 6790 µM) | 1.56 (≈ 3.31 µM) | 3.12 (≈ 6.62 µM) | 0.78 (≈ 1.65 µM) | 0.39 (≈ 0.827 µM) | 3200 (≈ 6790 µM) | 3200 (≈ 6790 µM) | > 50
CC(=O)OCC1=C(C(=O)O)N2C(=O)[C@@H](NC(=O)C(NC(=O)c3cc(OC(C)=O)c(OC(C)=O)c(OC(C)=O)c3)c3csc(N)n3)[C@H]2SC1 (mixture of isomers) [Example 18, 7β-[DL-2-(3,4,5-triacetoxybenzoylamino)-2-(2-aminothiazol-4-yl)acetamido]cephalosporic acid] | 0.78 | 0.1 | 0.78 | 0.39 | 1.56 | 0.78 | 0.2 | 3.12 |  |  |  |  |  |  |  | 
CO[C@@]1(NC(=O)C(NC(=O)c2cccc(OC(C)=O)c2OC(C)=O)c2csc(N)n2)C(=O)N2C(C(=O)O)=C(COC(C)=O)CS[C@@H]21 (mixture of isomers) [Example 8, 7α-methoxy-7β-(DL-2-(2,3-diacetoxy-benzoylamino)-2-(2-aminothiazol-4-yl)acetamido]-cephalosporic acid] | 3.12 | 0.78 | 3.12 | 25 | 6.25 | 6.25 | 1.56 | 3.12 |  |  |  |  |  |  |  | 
CO[C@@]1(NC(=O)C(NC(=O)c2cc(OC(C)=O)c(OC(C)=O)c(OC(C)=O)c2)c2csc(N)n2)C(=O)N2C(C(=O)O)=C(COC(C)=O)CS[C@@H]21 (mixture of isomers) [Example 7, 7α-methoxy-7β-[DL-2-(3,4,5-triacetoxy-benzoylamino)-2-(2-aminothiazol-4-yl)acetamido]-cephalosporic acid] | 0.78 | 1.56 | 12.5 | 12.5 | 6.25 | 1.56 | 0.78 | 50 |  |  |  |  |  |  |  | 
CO[C@@]1(NC(=O)C(NC(=O)c2ccc(OC(C)=O)c(OC(C)=O)c2)c2csc(N)n2)C(=O)N2C(C(=O)O)=C(CSc3nnnn3C)CS[C@@H]21 (mixture of isomers) [Example 10, 7α-methoxy-7β-[DL-2-(3,4-diacetoxy-benzoylamino)-2-(2-aminothiazol-4-yl)acetamidol-3-(1-methyl-lH-tetrazol-5-yl-thiomethyl)-3-cephem-4-carboxylic acid] | 0.2 | 0.2 | 1.56 | 6.25 | 0.78 | 0.2 | 0.2 | 3.12 |  |  |  |  |  |  |  | 
